Assay type in all cases: biochemical
One assay concerns the target T1, c-KIT (Homo sapiens, UniProt P10721).
T1 construct: 0.02% BSA and 25 nM c-KIT
Nature of the assay: Inhibition of c-KIT, radiometric filter-binding assay. The following applies: 700 μM ATP, 0.5 mg/mL pE4Y, room temperature. On the procedure: Compounds are screened for their ability to inhibit c-KIT activity using a radiometric filter-binding assay. This assay monitors the ^33P incorporation into a substrate poly(Glu, Tyr) 4:1 (pE4Y). Reactions are carried out in a solution containing 100 mM HEPES (pH 7.5), 10 mM MgCl2, 25 mM NaCl, 1 mM DTT, 0.01% BSA and 2.5% DMSO. Final substrate concentrations in the assay were 700 μM ATP and 0.5 mg/mL pE4Y (both from Sigma Chemicals, St Louis, Mo.). The final concentration of compounds is generally between 0.01 and 5 μM. Typically, a 12-point titration is conducted by preparing serial dilutions from 10 mM DMSO stock of test compound. Reactions were carried out at room temperature.
Two assay solutions are prepared. Solution 1 contains 100 mM HEPES (pH 7.5), 10 mM MgCl2, 25 mM NaCl, 1 mg/ml pE4Y and 1.4 mM ATP(containing 0.5 μCi of [γ-^33P]ATP for each reaction). Solution 2 contains 100 mM HEPES (pH 7.5), 10 mM MgCl2, 25 mM NaCl, 2 mM DTT, 0.02% BSA and 25 nM c-KIT. The assay is run on a 96 well plate by mixing 33 μL of Solution1 and 1.65 μL of the test compounds. The reaction is initiated with 33 μL of Solution2. After incubation for 20 minutes at room temperature, the reaction was stopped with 50 μL of 10% TCA containing 0.2 mM of ATP. All of the reaction volume is then transferred to a filter plate and washed with 5% TCA by a Harvester9600 from TOMTEC (Hamden, Conn.). The amount of ^33P incorporation into pE4y is analyzed by a Packard TopCount Microplate Scintillation Counter (Meriden, Conn.). The data is fitted using Prism software to get an IC50 or Ki.

For the next assay, the target named is KDR (Homo sapiens, UniProt P35968). Description: KDR enzyme assay, coupled enzyme assay. The following applies: 300 μM ATP, 10 μM poly E4Y, 30 nM KDR, 37° C. On the procedure:
Compounds were screened for their ability to inhibit KDR using a standard coupled enzyme assay (Fox et al., Protein Sci., (1998) 7, 2249). Assays were carried out in a mixture of 200 mM HEPES 7.5, 10 mM MgCl2, 25 mM NaCl, 1 mM DTT and 1.5% DMSO. Final substrate concentrations in the assay were 300 μM ATP (Sigma Chemicals) and 10 μM poly E4Y (Sigma). Assays were carried out at 37° C. and 30 nM KDR. Final concentrations of the components of the coupled enzyme system were 2.5 mM phosphoenolpyruvate, 200 μM NADH, 30 μg/ML pyruvate kinase and 10 μg/ml lactate dehydrogenase.
An assay stock buffer solution was prepared containing all of the reagents listed above, with the exception of ATP and the test compound of interest. 177 μl of the stock solution was placed in a 96 well plate followed by addition of 3 μl of 2 mM DMSO stock containing the test compound (final compound concentration 30 μM). The plate was preincubated for about 10 minutes at 37° C. and the reaction initiated by addition of 20 μl of ATP (final concentration 300 μM). Rates of reaction were obtained using a Molecular Devices plate reader (Sunnyvale, Calif.) over a 5 minute read time at 37° C.

For the next assay, the target named is T2, JAK3 (Homo sapiens, UniProt P52333).
T2 sequence (P52333 1-1124): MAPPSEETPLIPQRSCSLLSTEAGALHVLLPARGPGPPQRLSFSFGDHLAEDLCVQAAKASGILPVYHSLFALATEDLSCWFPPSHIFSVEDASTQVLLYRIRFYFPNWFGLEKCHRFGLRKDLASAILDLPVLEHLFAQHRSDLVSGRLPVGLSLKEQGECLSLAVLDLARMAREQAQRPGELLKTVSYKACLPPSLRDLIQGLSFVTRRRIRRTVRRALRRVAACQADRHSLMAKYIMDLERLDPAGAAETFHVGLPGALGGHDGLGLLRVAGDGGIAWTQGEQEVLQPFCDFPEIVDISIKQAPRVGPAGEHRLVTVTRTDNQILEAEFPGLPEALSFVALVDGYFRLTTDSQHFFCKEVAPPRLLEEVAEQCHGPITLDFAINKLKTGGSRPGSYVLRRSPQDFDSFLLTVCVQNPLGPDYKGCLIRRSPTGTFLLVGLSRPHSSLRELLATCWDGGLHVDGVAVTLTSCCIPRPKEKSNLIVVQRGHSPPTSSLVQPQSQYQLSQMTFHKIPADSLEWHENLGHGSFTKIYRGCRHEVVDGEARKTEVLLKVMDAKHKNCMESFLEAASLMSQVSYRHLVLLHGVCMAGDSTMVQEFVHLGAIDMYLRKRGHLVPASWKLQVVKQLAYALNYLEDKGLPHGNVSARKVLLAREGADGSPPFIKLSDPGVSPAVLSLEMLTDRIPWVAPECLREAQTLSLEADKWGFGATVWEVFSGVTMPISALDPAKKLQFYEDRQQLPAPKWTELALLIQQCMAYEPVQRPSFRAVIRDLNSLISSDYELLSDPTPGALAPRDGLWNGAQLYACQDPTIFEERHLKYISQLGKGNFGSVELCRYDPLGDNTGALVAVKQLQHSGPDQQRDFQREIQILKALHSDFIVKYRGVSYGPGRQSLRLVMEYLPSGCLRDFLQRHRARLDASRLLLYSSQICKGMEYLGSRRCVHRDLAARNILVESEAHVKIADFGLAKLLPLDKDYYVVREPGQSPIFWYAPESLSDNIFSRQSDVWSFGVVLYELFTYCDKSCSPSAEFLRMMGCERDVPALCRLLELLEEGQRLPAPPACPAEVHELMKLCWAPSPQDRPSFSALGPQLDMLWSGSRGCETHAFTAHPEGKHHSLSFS
Nature of the assay: JAK3 inhibition assay (ELISA, Poly (Glu, Ala, Tyr) coated plates). The following applies: 2 mM ATP, 60 minutes at 30° C. The procedure, abridged: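 ELISA on Poly(Glu,Ala,Tyr) 6:3:1-coated plates with 2 mM ATP and 5 mM MgCl2. JAK enzyme started the reaction, run 60 min at 30° C. Phosphotyrosine was detected with HRP-conjugated 4G10 antibody and TMB, read at 450 nm, and IC50 was derived from optical densities.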
A general note: An ELISA detects its analyte on a solid surface through an enzyme-linked reagent.

Some results are limits rather than exact numbers.

This passage reports Ki results from US7446199B2, “Compositions useful as inhibitors of protein kinases” (Vertex Pharmaceuticals Incorporated, priority 2003, dated 2008).

By Ki is commonly meant a dissociation constant, usually derived from enzyme kinetics or from competition with a known ligand. Read a high Ki as weaker binding.

T1 sequence (P10721 26-976): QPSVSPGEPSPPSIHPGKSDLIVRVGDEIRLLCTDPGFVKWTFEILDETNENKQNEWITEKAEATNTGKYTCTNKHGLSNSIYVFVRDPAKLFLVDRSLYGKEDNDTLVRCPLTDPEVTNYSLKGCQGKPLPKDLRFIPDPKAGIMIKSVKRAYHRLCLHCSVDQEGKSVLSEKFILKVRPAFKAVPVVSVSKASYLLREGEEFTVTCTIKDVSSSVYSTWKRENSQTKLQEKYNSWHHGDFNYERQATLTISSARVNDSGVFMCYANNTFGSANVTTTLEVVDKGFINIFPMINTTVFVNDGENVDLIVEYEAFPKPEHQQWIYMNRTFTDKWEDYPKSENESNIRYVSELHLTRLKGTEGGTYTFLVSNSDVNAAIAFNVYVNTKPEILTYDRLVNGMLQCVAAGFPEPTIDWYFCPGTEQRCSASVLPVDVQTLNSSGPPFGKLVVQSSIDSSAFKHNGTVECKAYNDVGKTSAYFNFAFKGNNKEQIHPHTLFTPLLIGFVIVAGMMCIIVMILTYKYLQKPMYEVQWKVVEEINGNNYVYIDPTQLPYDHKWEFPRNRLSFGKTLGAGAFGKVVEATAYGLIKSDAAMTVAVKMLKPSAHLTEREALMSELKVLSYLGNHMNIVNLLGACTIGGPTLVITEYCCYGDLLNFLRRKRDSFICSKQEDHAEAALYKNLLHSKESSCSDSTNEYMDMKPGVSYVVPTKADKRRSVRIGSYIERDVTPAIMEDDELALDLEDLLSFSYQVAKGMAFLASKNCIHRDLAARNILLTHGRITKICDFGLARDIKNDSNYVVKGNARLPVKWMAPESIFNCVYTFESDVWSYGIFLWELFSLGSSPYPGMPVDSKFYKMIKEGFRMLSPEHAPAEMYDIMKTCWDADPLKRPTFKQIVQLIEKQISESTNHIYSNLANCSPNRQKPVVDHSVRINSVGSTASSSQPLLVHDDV
KDR, sequence (P35968 20-1356): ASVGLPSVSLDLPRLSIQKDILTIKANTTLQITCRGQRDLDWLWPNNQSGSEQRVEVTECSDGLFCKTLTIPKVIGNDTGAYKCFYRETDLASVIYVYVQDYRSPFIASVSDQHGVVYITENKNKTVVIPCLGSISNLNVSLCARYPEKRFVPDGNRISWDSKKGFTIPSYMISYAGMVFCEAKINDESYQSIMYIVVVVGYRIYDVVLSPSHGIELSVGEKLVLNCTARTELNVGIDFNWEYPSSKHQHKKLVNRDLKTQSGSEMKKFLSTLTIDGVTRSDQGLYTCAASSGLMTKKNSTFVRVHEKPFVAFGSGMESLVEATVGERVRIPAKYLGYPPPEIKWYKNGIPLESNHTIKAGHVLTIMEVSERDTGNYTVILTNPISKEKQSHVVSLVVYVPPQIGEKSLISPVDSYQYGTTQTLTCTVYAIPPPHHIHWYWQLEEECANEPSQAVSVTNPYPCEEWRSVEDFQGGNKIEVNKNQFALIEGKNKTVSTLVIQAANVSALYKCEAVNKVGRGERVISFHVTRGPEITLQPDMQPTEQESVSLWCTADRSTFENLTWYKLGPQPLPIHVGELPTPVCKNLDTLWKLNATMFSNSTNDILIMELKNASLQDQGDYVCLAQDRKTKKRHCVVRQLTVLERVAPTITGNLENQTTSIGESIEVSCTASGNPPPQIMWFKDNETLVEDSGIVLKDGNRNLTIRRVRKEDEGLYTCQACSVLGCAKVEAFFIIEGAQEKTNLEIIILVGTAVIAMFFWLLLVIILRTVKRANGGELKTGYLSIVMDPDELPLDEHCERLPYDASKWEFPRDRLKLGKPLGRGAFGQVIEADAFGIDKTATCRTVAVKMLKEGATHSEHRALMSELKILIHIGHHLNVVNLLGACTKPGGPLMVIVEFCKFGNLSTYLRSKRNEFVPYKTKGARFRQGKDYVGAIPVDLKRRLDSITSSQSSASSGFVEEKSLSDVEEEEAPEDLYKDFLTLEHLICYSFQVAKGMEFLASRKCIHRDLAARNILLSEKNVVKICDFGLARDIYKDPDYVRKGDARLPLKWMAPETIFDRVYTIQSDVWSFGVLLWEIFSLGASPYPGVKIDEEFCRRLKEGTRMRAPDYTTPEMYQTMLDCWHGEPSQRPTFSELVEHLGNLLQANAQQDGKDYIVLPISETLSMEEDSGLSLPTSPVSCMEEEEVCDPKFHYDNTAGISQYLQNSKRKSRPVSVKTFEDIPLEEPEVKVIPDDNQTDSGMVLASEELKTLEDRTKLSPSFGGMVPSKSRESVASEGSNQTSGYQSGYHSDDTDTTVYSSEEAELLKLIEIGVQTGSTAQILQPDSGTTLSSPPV

As for `Fc1ccc(-c2cnoc2-c2c[nH]c3ncccc23)c(F)c1F` [Compound 40, 3-[4-(2,3,4-Trifluoro-phenyl)-isoxazol-5-yl]-1H-pyrrolo [2,3-b]pyridine], the Ki at c-KIT is 200 to 1000 nM; on KDR it was 200 to 1000 nM; at JAK3, 1000 to 12500 nM.

For the compound `CN(C)Cc1ccc(-c2cnc3[nH]cc(-c4oncc4-c4cccc(F)c4F)c3c2)cc1` [Compound 91, (4-{3-[4-(2,3-Difluoro-phenyl)-isoxazol-5-yl]-1H-pyrrolo[2,3-b]pyridin-5-yl}-benzyl)-dimethyl-amine], the values for the Ki on c-KIT, on KDR and on JAK3 were less than 200 nM, 200 to 1000 nM and less than 200 nM, respectively.

For `Fc1cccc(-n2cnnc2-c2c[nH]c3ncc(-c4ccc(N5CCC[C@H]5CN5CCCC5)nc4)cc23)c1F` [Compound 115, 3-[4-(2,3-Difluoro-phenyl)-4H-[1,2,4]triazol-3-yl]-5-[6-(2-pyrrolidin-1-ylmethyl-pyrrolidin-1-yl)-pyridin-3-yl]-1H-pyrrolo[2,3-b]pyridine], the Ki on c-KIT was 200 to 1000 nM; on KDR it was 1000 to 12500 nM; on JAK3, 1000 to 12500 nM.

`Fc1cccc(-c2cnoc2-c2c[nH]c3ncc(C4CCNCC4)cc23)c1F` [Compound 62, 3-[4-(2,3-Difluoro-phenyl)-isoxazol-5-yl]-5-piperidin-4-yl-1H-pyrrolo[2,3-b]pyridine]: the Ki on c-KIT was in the range of 200 to 1000 nM; on KDR, 1000 to 12500 nM; at JAK3 it was 1000 to 12500 nM.

As to `COc1cnc2[nH]cc(-c3oncc3-c3cccc(F)c3F)c2c1` [Compound 38, 3-[4-(2,3-Difluoro-phenyl)-isoxazol-5-yl]-5-methoxy-1H-pyrrolo[2,3-b]pyridine], the inhibition constant (Ki) was less than 200 nM on c-KIT, 200 to 1000 nM on KDR and less than 200 nM at JAK3.

Take `Fc1cccc(-c2cnoc2-c2c[nH]c3ncc(-c4ccncc4)cc23)c1F` [Compound 57, 3-[4-(2,3-Difluoro-phenyl)-isoxazol-5-yl]-5-pyridin-4-yl-1H-pyrrolo[2,3-b]pyridine]: the values for the inhibition constant (Ki) at c-KIT, at KDR and at JAK3 were less than 200 nM, 200 to 1000 nM and less than 200 nM, respectively.

`Fc1cccc(-n2cnnc2-c2c[nH]c3ncc(-c4ccncc4)cc23)c1F` [Compound 114, 3-[4-(2,3-Difluoro-phenyl)-4H-[1,2,4]triazol-3-yl]-5-pyridin-4-yl-1H-pyrrolo[2,3-b]pyridine]: the values for the inhibitory constant (Ki) at c-KIT, at KDR and on JAK3 were less than 200 nM, 200 to 1000 nM and 1000 to 12500 nM, respectively.

As for `CN(C)Cc1ccc(-c2cnc3[nH]cc(-c4oncc4-c4cccc(F)c4F)c3c2)nc1` [Compound 84, (6-{3-[4-(2,3-Difluoro-phenyl)-isoxazol-5-yl]-1H-pyrrolo[2,3-b]pyridin-5-yl}-pyridin-3-ylmethyl)-dimethyl-amine], the Ki on c-KIT, at KDR and on JAK3 was less than 200 nM throughout.

Regarding `CCN1CCC(c2cnc3[nH]cc(-c4oncc4-c4cccc(F)c4F)c3c2)CC1` [Compound 72, 3-[4-(2,3-Difluoro-phenyl)-isoxazol-5-yl]-5-(1-ethyl-piperidin-4-yl)-1H-pyrrolo[2,3-b]pyridine], the inhibitory constant (Ki) at c-KIT was less than 200 nM; at JAK3, 1000 to 12500 nM.

Consider `Oc1cnc2[nH]cc(-c3oncc3-c3cccc(F)c3F)c2c1` [Compound 43, 3-[4-(2,3-Difluoro-phenyl)-isoxazol-5-yl]-1H-pyrrolo[2,3-b]pyridin-5-ol], for which the Ki on c-KIT is less than 200 nM; at KDR it was 200 to 1000 nM; on JAK3, less than 200 nM.

As to `Fc1cccc(-c2cnoc2-c2c[nH]c3ncc(-c4c[nH]cn4)cc23)c1F` [Compound 76, 3-[4-(2,3-Difluoro-phenyl)-isoxazol-5-yl]-5-(3H-imidazol-4-yl)-1H-pyrrolo[2,3-b]pyridine], the inhibition constant Ki is less than 200 nM at c-KIT, 200 to 1000 nM at KDR and less than 200 nM at JAK3.

Consider `COc1ccnc(-c2cnc3[nH]cc(-c4oncc4-c4cccc(F)c4F)c3c2)c1` [Compound 78, 3-[4-(2,3-Difluoro-phenyl)-isoxazol-5-yl]-5-(4-methoxy-pyridin-2-yl)-1H-pyrrolo[2,3-b]pyridine], for which the Ki was less than 200 nM at c-KIT, less than 200 nM on KDR and 200 to 1000 nM on JAK3.

With `Fc1cccc(-c2cnoc2-c2c[nH]c3ncc(-c4ccc(CN5CCCC5)cc4)cc23)c1F` [Compound 93, 3-[4-(2,3-Difluoro-phenyl)-isoxazol-5-yl]-5-(4-pyrrolidin-1-ylmethyl-phenyl)-1H-pyrrolo[2,3-b]pyridine], the Ki on c-KIT, at KDR and on JAK3 was less than 200 nM in each case.

As for `CN(C)c1cccc(-c2cnc3[nH]cc(-c4oncc4-c4cccc(F)c4F)c3c2)c1` [Compound 61, (3-{3-[4-(2,3-Difluoro-phenyl)-isoxazol-5-yl]-1H-pyrrolo[2,3-b]pyridin-5-yl}-phenyl)-dimethyl-amine], the Ki at c-KIT was less than 200 nM; at KDR, 200 to 1000 nM; on JAK3 it was 200 to 1000 nM.

Turning to `O=c1ccc(-c2cnc3[nH]cc(-c4oncc4-c4cccc(F)c4F)c3c2)c[nH]1` [Compound 67, 5-{3-[4-(2,3-Difluoro-phenyl)-isoxazol-5-yl]-1H-pyrrolo [2,3-b]pyridin-5-yl}-1H-pyridin-2-one], the Ki at c-KIT, at KDR and on JAK3 was less than 200 nM in each case.

Consider `CN1CCC(c2cnc3[nH]cc(-c4oncc4-c4cccc(F)c4F)c3c2)CC1` [Compound 60, 3-[4-(2,3-Difluoro-phenyl)-isoxazol-5-yl]-5-(1-methyl-piperidin-4-yl)-1H-pyrrolo[2,3-b]pyridine], for which the Ki on c-KIT is 200 to 1000 nM; on JAK3, 1000 to 12500 nM.

On to `Cn1ccc2c(-c3oncc3-c3cccc(F)c3F)c[nH]c2c1=O` [Compound 144, 3-[4-(2,3-Difluoro-phenyl)-isoxazol-5-yl]-6-methyl-1,6-dihydro-pyrrolo[2,3-c]pyridin-7-one], for which the Ki on c-KIT is 200 to 1000 nM; on JAK3 it was 1000 to 12500 nM.
